Measured values from patent US10221137B2, “Herbicidal phenylpyridines” (BASF SE, priority 2015, dated 2019).

What was measured:
Assay in all cases: greenhouse experiment, post-emergence treatment
Assay type in all cases: in vivo
Settings in all cases: application rate of 16 g/ha, post-emergence method; scale from 0 to 100
Chenopodium album = system: Chenopodium album
Excerpt: (§1) The seeds of the test plants were sown separately for each species. For the post-emergence treatment, the test plants were first grown to a height of 3 to 15 cm, depending on the plant habit, and only then treated with the active ingredients which had been suspended or emulsified in water. For this purpose, the test plants were either sown directly and grown in the same containers, or they were first grown separately as seedlings and transplanted into the test containers a few days prior to treatment. Depending on the species, the plants were kept at 10-25° C. or 20-35° C., respectively. The test period extended over 2 to 4 weeks. During this time, the plants were tended, and their response to the individual treatments was evaluated. Evaluation was carried out using a scale from 0 to 100. 100 means no emergence of the plants, or complete destruction of at least the aerial moieties, and 0 means no damage, or normal course of growth. A good herbicidal activity is given at values of at least 70 and a very good herbicidal activity is given at values of at least 85. The plants used in the greenhouse experiments were of the following species: [table]

Setaria viridis = system: Setaria viridis
Excerpt: as §1

Amaranthus retroflexus = system: Amaranthus retroflexus
Excerpt: as §1

Row | SMILES | herbicidal activity against Chenopodium album (Chenopodium album) | herbicidal activity against Setaria viridis (Setaria viridis) | herbicidal activity against Amaranthus retroflexus (Amaranthus retroflexus)
1 | COC(=O)C(OC)Oc1cc(-c2ncc(Cl)cc2Cl)ccc1Cl (racemic) [Example 6] | good herbicidal activity (A good herbicidal activity is given at values of at least 70) | very good herbicidal activity (a very good herbicidal activity is given at values of at least 85) | very good herbicidal activity (a very good herbicidal activity is given at values of at least 85)
2 | COc1ccc(CNC(=O)C(OC)Oc2cc(-c3ncc(C(F)(F)F)cc3Cl)c(F)cc2Cl)cc1 (stereo not drawn) [Example 44] | very good herbicidal activity (a very good herbicidal activity is given at values of at least 85) | good herbicidal activity (A good herbicidal activity is given at values of at least 70) | very good herbicidal activity (a very good herbicidal activity is given at values of at least 85)
